Biological target: Maltase-glucoamylase (Homo sapiens, UniProt O43451)
Test: Inhibition of alpha glucosidase

Chain of Maltase-glucoamylase (O43451 whole entry): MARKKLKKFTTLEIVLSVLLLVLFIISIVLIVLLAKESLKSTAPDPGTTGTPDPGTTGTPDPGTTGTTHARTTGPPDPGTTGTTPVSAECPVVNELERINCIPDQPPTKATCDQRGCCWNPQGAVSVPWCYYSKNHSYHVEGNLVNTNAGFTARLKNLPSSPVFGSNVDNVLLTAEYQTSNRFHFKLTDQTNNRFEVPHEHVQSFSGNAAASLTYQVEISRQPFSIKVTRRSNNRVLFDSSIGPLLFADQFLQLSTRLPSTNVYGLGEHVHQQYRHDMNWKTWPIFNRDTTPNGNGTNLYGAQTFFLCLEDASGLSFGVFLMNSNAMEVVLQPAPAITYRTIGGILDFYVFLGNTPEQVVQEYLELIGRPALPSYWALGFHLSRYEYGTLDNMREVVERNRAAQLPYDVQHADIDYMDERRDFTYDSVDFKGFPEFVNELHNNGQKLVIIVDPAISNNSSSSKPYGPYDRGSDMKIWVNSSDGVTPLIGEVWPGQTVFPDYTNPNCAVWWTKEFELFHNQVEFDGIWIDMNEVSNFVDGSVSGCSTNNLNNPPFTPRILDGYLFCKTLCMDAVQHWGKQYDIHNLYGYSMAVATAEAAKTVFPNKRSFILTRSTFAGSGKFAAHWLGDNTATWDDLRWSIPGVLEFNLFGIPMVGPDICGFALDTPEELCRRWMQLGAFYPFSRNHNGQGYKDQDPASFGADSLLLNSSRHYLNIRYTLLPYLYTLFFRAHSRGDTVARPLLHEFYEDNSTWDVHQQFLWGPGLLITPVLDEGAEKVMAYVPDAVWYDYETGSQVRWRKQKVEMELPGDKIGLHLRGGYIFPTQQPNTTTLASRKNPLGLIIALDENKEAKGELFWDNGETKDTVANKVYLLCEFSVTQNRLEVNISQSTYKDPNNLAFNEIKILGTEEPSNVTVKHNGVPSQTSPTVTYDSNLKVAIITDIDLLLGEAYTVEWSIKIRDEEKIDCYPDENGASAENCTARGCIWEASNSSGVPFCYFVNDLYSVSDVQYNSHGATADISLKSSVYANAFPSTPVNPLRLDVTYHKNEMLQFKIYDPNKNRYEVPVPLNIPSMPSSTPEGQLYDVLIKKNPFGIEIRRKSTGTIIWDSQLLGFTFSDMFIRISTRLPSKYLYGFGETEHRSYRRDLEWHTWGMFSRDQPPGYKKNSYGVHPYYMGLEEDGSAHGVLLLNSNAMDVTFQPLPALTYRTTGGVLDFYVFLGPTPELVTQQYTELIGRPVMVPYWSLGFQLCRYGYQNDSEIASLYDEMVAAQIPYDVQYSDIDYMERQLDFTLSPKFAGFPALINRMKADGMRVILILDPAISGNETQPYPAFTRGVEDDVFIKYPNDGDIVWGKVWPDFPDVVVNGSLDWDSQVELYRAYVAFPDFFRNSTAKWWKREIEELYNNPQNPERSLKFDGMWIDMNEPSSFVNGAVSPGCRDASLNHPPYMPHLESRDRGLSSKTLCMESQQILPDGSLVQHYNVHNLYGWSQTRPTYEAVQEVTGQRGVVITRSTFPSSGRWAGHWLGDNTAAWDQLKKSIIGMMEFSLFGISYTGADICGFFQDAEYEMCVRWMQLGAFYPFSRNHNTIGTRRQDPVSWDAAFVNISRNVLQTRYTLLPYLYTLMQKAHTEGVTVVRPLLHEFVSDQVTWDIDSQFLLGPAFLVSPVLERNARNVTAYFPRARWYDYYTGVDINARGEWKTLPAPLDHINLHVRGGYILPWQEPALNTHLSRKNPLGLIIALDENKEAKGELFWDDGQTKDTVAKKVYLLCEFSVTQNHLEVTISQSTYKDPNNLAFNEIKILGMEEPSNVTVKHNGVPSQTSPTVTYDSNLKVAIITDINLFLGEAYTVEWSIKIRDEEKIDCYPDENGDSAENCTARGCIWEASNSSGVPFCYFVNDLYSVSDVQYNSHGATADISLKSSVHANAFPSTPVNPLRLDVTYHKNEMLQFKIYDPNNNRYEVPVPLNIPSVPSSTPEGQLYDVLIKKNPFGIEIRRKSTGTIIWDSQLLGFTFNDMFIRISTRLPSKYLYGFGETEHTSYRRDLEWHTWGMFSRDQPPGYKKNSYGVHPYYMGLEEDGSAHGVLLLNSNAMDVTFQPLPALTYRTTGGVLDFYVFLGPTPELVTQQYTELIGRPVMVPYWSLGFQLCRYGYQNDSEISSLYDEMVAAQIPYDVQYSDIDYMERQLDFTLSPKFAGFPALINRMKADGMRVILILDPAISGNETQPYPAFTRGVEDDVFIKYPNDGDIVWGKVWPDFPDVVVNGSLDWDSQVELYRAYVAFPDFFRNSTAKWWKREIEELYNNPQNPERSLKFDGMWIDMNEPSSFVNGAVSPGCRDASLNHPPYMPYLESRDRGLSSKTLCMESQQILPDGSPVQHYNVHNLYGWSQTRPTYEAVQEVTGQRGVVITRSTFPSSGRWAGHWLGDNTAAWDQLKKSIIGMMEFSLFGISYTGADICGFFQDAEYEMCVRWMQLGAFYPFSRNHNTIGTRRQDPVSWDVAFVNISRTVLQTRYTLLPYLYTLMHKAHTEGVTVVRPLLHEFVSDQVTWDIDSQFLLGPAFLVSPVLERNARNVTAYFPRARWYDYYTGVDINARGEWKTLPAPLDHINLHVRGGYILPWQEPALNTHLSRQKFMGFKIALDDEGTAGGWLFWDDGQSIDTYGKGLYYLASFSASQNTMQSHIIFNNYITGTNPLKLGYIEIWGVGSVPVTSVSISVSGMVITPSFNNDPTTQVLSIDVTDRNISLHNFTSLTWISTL

Compound	IC50 [µM]
C=C1CC[C@@H]2[C@](C)(CO)[C@H](O)CC[C@@]2(C)[C@@H]1/C=C/C1=CC(=C/C=C/c2ccccc2)/OC1=O [3-(2-((1R,4aS,5R,6R,8aR)-6-hydroxy-5-(hydroxymethyl)-5,8a-dimethyl-2-methylene-decahydronaphthalen-1-yl)vinyl)-5-(3-phenylallylidene)furan-2(5H)-one]	58
C=C1CC[C@@H]2[C@](C)(CO)[C@H](O)CC[C@@]2(C)[C@@H]1/C=C/C1=CC(=C/CCC)/OC1=O [5-butylidene-3-(2-((1R,4aS,5R,6R,8aR)-6-hydroxy-5-(hydroxymethyl)-5,8a-dimethyl-2-methylene-decahydronaphthalen-1-yl)vinyl)furan-2(5H)-one]	110
C[C@]1(CO)[C@H]2CC[C@@]3(CO3)[C@@H](/C=C/C3=CC(=C/C=C/c4ccccc4)/OC3=O)[C@]2(C)CC[C@H]1O [(5Z)-3-[(E)-2-[(1S,2S,4aS,5R,6R,8aR)-6-hydroxy-5-(hydroxymethyl)-5,8a-dimethyl-octahydro-1H-spiro[naphthalene-2,2'-oxirane]-1-yl]ethenyl]-5-[(2E)-3-phenylprop-2-en-1-ylidene]-2,5-dihydrofuran-2-one]	101
COc1ccc(/C=C2C=C(/C=C/[C@@H]3[C@@]4(CC[C@@H]5[C@](C)(CO)[C@H](O)CC[C@]53C)CO4)C(=O)O/2)cc1 [(5Z)-3-[(E)-2-[(1S,2S,4aS,5R,6R,8aR)-6-hydroxy-5-(hydroxymethyl)-5,8a-dimethyl-octahydro-1H-spiro[naphthalene-2,2'-oxirane]-1-yl]ethenyl]-5-[(4-methoxyphenyl)methylidene]-2,5-dihydrofuran-2-one]	120
C=C1CC[C@@H]2[C@]3(C)COC(c4cccc(Br)c4)O[C@@H]3CC[C@@]2(C)[C@@H]1C/C=C1/C(=O)OC[C@H]1O (stereo partly drawn) [(S)-3-(2-((4aR,6aS,7R,10aS,10bR)-3-(3-bromophenyl)-6a,10b-dimethyl-8-methylene-decahydro-1H-naphtho[2,1-d][1,3]dioxin-7-yl)ethylidene)-4-hydroxy-dihydrofuran-2(3H)-one]	100
C=C1CC[C@@H]2[C@]3(C)COC(c4ccccc4)O[C@@H]3CC[C@@]2(C)[C@@H]1C/C=C1/C(=O)OC[C@H]1O (stereo partly drawn) [(S)-3-(2-((4aR,6aS,7R,10aS,10bR)-6a,10b-dimethyl-8-methylene-3-phenyl-decahydro-1H-naphtho[2,1-d][1,3]dioxin-7-yl)ethylidene)-4-hydroxy-dihydrofuran-2(3H)-one]	101

Reference: BindingDB's records for doi:10.1016/j.bmcl.2006.02.011 (Zhengzhou University, 2006)
